Where a SMILES comes first, the peptide text is derived from it. The star is where a group is joined. Myristoyl = CCCCCCCCCCCCCC(=O)*
Experiments:
MDA-MB-231 cells = format: cell-based, human; conditions: 50 μM peptide, 48 hours, n = 1
Excerpt: (§1) Non-adherent cells were removed during the washing steps.

[1] = test system: CD44^hiCD24^lo CSCs in MDA-MB-231 cells; assay: FACS analysis of CD44^hiCD24^lo cancer stem cells in MDA-MB-231 cells treated with P1 analogues; format: cell-based, human; conditions: 50 μM peptide, 48 hours; for CD44^hiCD24^lo CSCs (%) / COI, Live Single CD44^hiCD24^lo CSCs (Cell Count): n = 1; for Average Inhibition of CSCs (%) / CD44^hiCD24^lo CSCs (%) Repeat 1 / CD44^hiCD24^lo CSCs (%) Repeat 2 / CD44^hiCD24^lo CSCs (%) Repeat 3: n = 3
Protocol: Analogues of P1 (Table 6) were designed and synthesized in accordance with the procedure of Example 5. The ability of these analogues to inhibit cancer stem cells was determined using FACS analysis on MDA-MB-231 cells, which constitutively contain approximately 90% CD44^hiCD24^lo cancer stem cells, treated with the peptides.
as §1
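For COI, Live Single Cells (Cell Count) in this document: live means Hoechst-negative events among single cells.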

SMILES	COI (Cell Count) (MDA-MB-231 cells)	COI, Live Single Cells (Cell Count) (MDA-MB-231 cells)	COI, Single (Cell Count) (MDA-MB-231 cells)	Total Cell Count (MDA-MB-231 cells)	Inhibition of CSCs (%) Repeat 1 [1] [%]	Inhibition of CSCs (%) Repeat 2 [1] [%]	Inhibition of CSCs (%) Repeat 3 [1] [%]	CD44^hiCD24^lo CSCs (%) [1] [%]	COI, Live Single CD44^hiCD24^lo CSCs (Cell Count) [1]	Average Inhibition of CSCs (%) [1] [%]	CD44^hiCD24^lo CSCs (%) Repeat 1 [1] [%]	CD44^hiCD24^lo CSCs (%) Repeat 2 [1] [%]	CD44^hiCD24^lo CSCs (%) Repeat 3 [1] [%]
CCCCCCCCCCCCCC(=O)N[C@H](C(=O)N[C@@H](Cc1ccccc1)C(=O)N[C@H](C(=O)N[C@@H](Cc1ccccc1)C(=O)N[C@@H](CCCNC(=N)N)C(=O)N[C@@H](CC(C)C)C(=O)N[C@@H](CCCNC(=N)N)C(=O)N[C@@H](CCCCN)C(=O)NCC(=O)N[C@@H](CCCNC(=N)N)C(=O)N[C@@H](CCSC)C(=O)N[C@@H](C)C(=O)N[C@@H](CC(=O)O)C(=O)N[C@H](C(=O)N[C@@H](CCCCN)C(=O)N[C@@H](CCCCN)C(N)=O)C(C)C)[C@@H](C)CC)[C@@H](C)O [Peptide 2815313, Myristoyl-TFIFRLRKGRMADVKK-NH2] (Myristoyl-TFIFRLRKGRMADVKK-NH2)	165	130	148	8909	22.34	23.02	27.96	61.54	80	24.44	69.60	69.06	64.65
CCCCCCCCCCCCCC(=O)N[C@H](C(=O)N[C@@H](Cc1ccccc1)C(=O)N[C@H](C(=O)N[C@@H](Cc1ccccc1)C(=O)N[C@@H](CCCNC(=N)N)C(=O)N[C@@H](CC(C)C)C(=O)N[C@@H](CCCNC(=N)N)C(=O)N[C@@H](CCCCN)C(=O)NCC(=O)N[C@@H](CCCNC(=N)N)C(=O)N[C@@H](CCSC)C(=O)N[C@@H](CCSC)C(=O)N[C@@H](CC(=O)O)C(=O)N[C@@H](C)C(=O)N[C@@H](CCCCN)C(=O)N[C@@H](CCCCN)C(N)=O)[C@@H](C)CC)[C@@H](C)O [Peptide 2815315, Myristoyl-TFIFRLRKGRMMDAKK-NH2] (Myristoyl-TFIFRLRKGRMMDAKK-NH2)	51	16	41	12122	86.74	82.99	83.97	18.75	3	84.57	11.89	15.26	14.39
CCCCCCCCCCCCCC(=O)N[C@H](C(=O)N[C@@H](Cc1ccccc1)C(=O)N[C@H](C(=O)N[C@@H](Cc1ccccc1)C(=O)N[C@@H](CCCNC(=N)N)C(=O)N[C@@H](CC(C)C)C(=O)N[C@@H](CCCNC(=N)N)C(=O)N[C@@H](CCCCN)C(=O)NCC(=O)N[C@@H](CCCNC(=N)N)C(=O)N[C@@H](CCSC)C(=O)N[C@@H](CCSC)C(=O)N[C@@H](CC(=O)O)C(=O)N[C@H](C(=O)N[C@@H](C)C(=O)N[C@@H](CCCCN)C(N)=O)C(C)C)[C@@H](C)CC)[C@@H](C)O [Peptide 2815316, Myristoyl-TFIFRLRKGRMMDVAK-NH2] (Myristoyl-TFIFRLRKGRMMDVAK-NH2)	22	4	20	10777	40.88	45.01	45.00	50.00	2	43.63	52.99	49.33	49.35
CCCCCCCCCCCCCC(=O)N[C@H](C(=O)N[C@@H](Cc1ccccc1)C(=O)N[C@H](C(=O)N[C@@H](Cc1ccccc1)C(=O)N[C@@H](CCCNC(=N)N)C(=O)N[C@@H](CC(C)C)C(=O)N[C@@H](CCCNC(=N)N)C(=O)N[C@@H](CCCCN)C(=O)NCC(=O)N[C@@H](CCCNC(=N)N)C(=O)N[C@@H](CCSC)C(=O)N[C@@H](CCSC)C(=O)N[C@@H](CC(=O)O)C(=O)N[C@H](C(=O)N[C@@H](CCCCN)C(=O)N[C@@H](C)C(N)=O)C(C)C)[C@@H](C)CC)[C@@H](C)O [Peptide 2815317, Myristoyl-TFIFRLRKGRMMDVKA-NH2] (Myristoyl-TFIFRLRKGRMMDVKA-NH2)	88	44	79	8821	47.53	46.46	63.38	40.91	18	52.46	47.02	48.03	32.86
CCCCCCCCCCCCCC(=O)N[C@H](C(=O)N[C@@H](Cc1ccccc1)C(=O)N[C@H](C(=O)N[C@@H](Cc1ccccc1)C(=O)N[C@@H](CCCNC(=N)N)C(=O)N[C@@H](CC(C)C)C(=O)N[C@@H](CCCNC(=N)N)C(=O)N[C@@H](CCCCN)C(=O)NCC(=O)N[C@@H](C)C(=O)N[C@@H](CCSC)C(=O)N[C@@H](CCSC)C(=O)N[C@@H](CC(=O)O)C(=O)N[C@H](C(=O)N[C@@H](CCCCN)C(=O)N[C@@H](CCCCN)C(N)=O)C(C)C)[C@@H](C)CC)[C@@H](C)O [Peptide 2815318, Myristoyl-TFIFRLRKGAMMDVKK-NH2] (Myristoyl-TFIFRLRKGAMMDVKK-NH2)	183	132	142	3480	54.80	54.73	55.59	53.03	70	55.04	40.51	40.61	39.86
CCCCCCCCCCCCCC(=O)N[C@@H](C)C(=O)N[C@H](C(=O)N[C@@H](Cc1ccccc1)C(=O)N[C@H](C(=O)N[C@@H](Cc1ccccc1)C(=O)N[C@@H](CCCNC(=N)N)C(=O)N[C@@H](CC(C)C)C(=O)N[C@@H](CCCNC(=N)N)C(=O)N[C@@H](CCCCN)C(=O)NCC(=O)N[C@@H](CCCNC(=N)N)C(=O)N[C@@H](CCSC)C(=O)N[C@@H](CCSC)C(=O)N[C@@H](CC(=O)O)C(=O)N[C@H](C(=O)N[C@@H](CCCCN)C(=O)N[C@@H](CCCCN)C(N)=O)C(C)C)[C@@H](C)CC)[C@@H](C)O [Peptide 2853801, Myristoyl-ATFIFRLRKGRMMDVKK-NH2] (Myristoyl-ATFIFRLRKGRMMDVKK-NH2)	2375	1894	2024	8558	93.01	94.77	94.78	5.39	102	94.19	6.27	4.69	4.68
CCCCCCCCCCCCCC(=O)N[C@@H](CCC(=O)O)C(=O)N[C@H](C(=O)N[C@@H](Cc1ccccc1)C(=O)N[C@H](C(=O)N[C@@H](Cc1ccccc1)C(=O)N[C@@H](CCCNC(=N)N)C(=O)N[C@@H](CC(C)C)C(=O)N[C@@H](CCCNC(=N)N)C(=O)N[C@@H](CCCCN)C(=O)NCC(=O)N[C@@H](CCCNC(=N)N)C(=O)N[C@@H](CCSC)C(=O)N[C@@H](CCSC)C(=O)N[C@@H](CC(=O)O)C(=O)N[C@H](C(=O)N[C@@H](CCCCN)C(=O)N[C@@H](CCCCN)C(N)=O)C(C)C)[C@@H](C)CC)[C@@H](C)O [Peptide 2853802, Myristoyl-ETFIFRLRKGRMMDVKK-NH2] (Myristoyl-ETFIFRLRKGRMMDVKK-NH2)	7612	6432	7095	9672	42.88	46.07	49.94	48.71	3133	46.30	51.19	48.38	44.92
CCCCCCCCCCCCCC(=O)N[C@@H](CCCCN)C(=O)N[C@H](C(=O)N[C@@H](Cc1ccccc1)C(=O)N[C@H](C(=O)N[C@@H](Cc1ccccc1)C(=O)N[C@@H](CCCNC(=N)N)C(=O)N[C@@H](CC(C)C)C(=O)N[C@@H](CCCNC(=N)N)C(=O)N[C@@H](CCCCN)C(=O)NCC(=O)N[C@@H](CCCNC(=N)N)C(=O)N[C@@H](CCSC)C(=O)N[C@@H](CCSC)C(=O)N[C@@H](CC(=O)O)C(=O)N[C@H](C(=O)N[C@@H](CCCCN)C(=O)N[C@@H](CCCCN)C(N)=O)C(C)C)[C@@H](C)CC)[C@@H](C)O [Peptide 2853803, Myristoyl-KTFIFRLRKGRMMDVKK-NH2] (Myristoyl-KTFIFRLRKGRMMDVKK-NH2)	741	666	702	1115	27.90	27.33	38.43	60.36	402	31.22	64.62	65.20	55.25
